Tested on: carbonic anhydrase (CAII)
Assay: furosemide binding on immobilized CAII, Epic biosensor (Example 3)
Conditions: cystine in combination with glycine
Experimental: Step 3. Binding of protein inhibitor: The plate was equilibrated at ambient (25° C.) temperature for about 30 min before rinsing with PBS (on Biomek, following standard rinsing protocol). The plate was centrifuged and soaked in 0.1% DMSO in PBS for about 4 h at ambient temperature.
The plate was then read in the Epic® instrument for 20 min.

`NS(=O)(=O)c1cc(C(=O)O)c(NCc2ccco2)cc1Cl` [furosemide] was tested, and the binding was “over 10 pm”.
